{"source": "PubChem BioAssay AID2060888", "about": "(Molecular Pharmacology Branch, DTP, NCI, 2025)", "system": "695427-040-R-J1-PDC complex spheroid viability", "test": "Anticancer human tumor 695427-040-R-J1-PDC patient-derived colon adenocarcinoma cell line growth inhibition [RAS]", "conditions": "for IC50: curve of first compound; for viability, T/C: stronger effect = lower value", "procedure,_shortened": "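Multi-cell-type spheroids: tumor cells plus HUVEC endothelial cells and mesenchymal stem cells. RAS-pathway inhibitors were combined with targeted agents, each dosed in half-log steps down from clinical Cmax, or from 10 microM when Cmax was unknown.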", "data": [{"molecule": "CCN1CCN(Cc2ccc(Nc3ncc(F)c(-c4cc(F)c5nc(C)n(C(C)C)c5c4)n3)nc2)CC1", "note": "+ CCn1c(-c2cccnc2C(C)OC)c2c3cc(ccc31)N1CCOC(CC(NC(=O)C(C(C)C)N(C)C(=O)C3(F)CCN(C(=O)C#CC(C)(C)N(C)C)CC3)C(=O)N3CCCC(N3)C(=O)OCC(C)(C)C2)C1;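 note: viability read after seven days of drug exposure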;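 for viability, T/C: 100% = DMSO vehicle control viability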", "values": [{"measurement": "IC50", "setting": "second compound 0.000949 µM", "value": "> 1000", "unit": "nM"}, {"measurement": "IC50", "setting": "second compound 0.003 µM", "value": "> 1000", "unit": "nM"}, {"measurement": "IC50", "setting": "second compound 0.00949 µM", "value": "> 1000", "unit": "nM"}, {"measurement": "IC50", "setting": "second compound 0.03 µM", "value": "> 1000", "unit": "nM"}, {"measurement": "IC50", "setting": "second compound 0.0949 µM", "value": "> 1000", "unit": "nM"}, {"measurement": "IC50", "setting": "second compound 0.3 µM", "value": "> 1000", "unit": "nM"}, {"measurement": "viability, T/C", "setting": "second compound 0.000949 µM, first compound 0.00316 µM", "value": 109, "unit": "%"}, {"measurement": "viability, T/C", "setting": "second compound 0.000949 µM, first compound 0.01 µM", "value": 88.1, "unit": "%"}, {"measurement": "viability, T/C", "setting": "second compound 0.000949 µM, first compound 0.0316 µM", "value": 84.9, "unit": "%"}, {"measurement": "viability, T/C", "setting": "second compound 0.000949 µM, first compound 0.1 µM", "value": 74.2, "unit": "%"}, {"measurement": "viability, T/C", "setting": "second compound 0.000949 µM, first compound 0.316 µM", "value": 99.1, "unit": "%"}, {"measurement": "viability, T/C", "setting": "second compound 0.000949 µM, first compound 1 µM", "value": 87.1, "unit": "%"}, {"measurement": "viability, T/C", "setting": "second compound 0.003 µM, first compound 0.00316 µM", "value": 100, "unit": "%"}, {"measurement": "viability, T/C", "setting": "second compound 0.003 µM, first compound 0.01 µM", "value": 86.3, "unit": "%"}, {"measurement": "viability, T/C", "setting": "second compound 0.003 µM, first compound 0.0316 µM", "value": 86.3, "unit": "%"}, {"measurement": "viability, T/C", "setting": "second compound 0.003 µM, first compound 0.1 µM", "value": 82.3, "unit": "%"}, {"measurement": "viability, T/C", "setting": "second compound 0.003 µM, first compound 0.316 µM", "value": 86.2, "unit": "%"}, {"measurement": "viability, T/C", "setting": "second compound 0.003 µM, first compound 1 µM", "value": 93, "unit": "%"}, {"measurement": "viability, T/C", "setting": "second compound 0.00949 µM, first compound 0.00316 µM", "value": 118, "unit": "%"}, {"measurement": "viability, T/C", "setting": "second compound 0.00949 µM, first compound 0.01 µM", "value": 84.3, "unit": "%"}, {"measurement": "viability, T/C", "setting": "second compound 0.00949 µM, first compound 0.0316 µM", "value": 87.1, "unit": "%"}, {"measurement": "viability, T/C", "setting": "second compound 0.00949 µM, first compound 0.1 µM", "value": 88.9, "unit": "%"}, {"measurement": "viability, T/C", "setting": "second compound 0.00949 µM, first compound 0.316 µM", "value": 91.2, "unit": "%"}, {"measurement": "viability, T/C", "setting": "second compound 0.00949 µM, first compound 1 µM", "value": 53.9, "unit": "%"}, {"measurement": "viability, T/C", "setting": "second compound 0.03 µM, first compound 0.00316 µM", "value": 96.6, "unit": "%"}, {"measurement": "viability, T/C", "setting": "second compound 0.03 µM, first compound 0.01 µM", "value": 88.1, "unit": "%"}, {"measurement": "viability, T/C", "setting": "second compound 0.03 µM, first compound 0.0316 µM", "value": 74.4, "unit": "%"}, {"measurement": "viability, T/C", "setting": "second compound 0.03 µM, first compound 0.1 µM", "value": 84.4, "unit": "%"}, {"measurement": "viability, T/C", "setting": "second compound 0.03 µM, first compound 0.316 µM", "value": 107, "unit": "%"}, {"measurement": "viability, T/C", "setting": "second compound 0.03 µM, first compound 1 µM", "value": 90.7, "unit": "%"}, {"measurement": "viability, T/C", "setting": "second compound 0.0949 µM, first compound 0.00316 µM", "value": 99.2, "unit": "%"}, {"measurement": "viability, T/C", "setting": "second compound 0.0949 µM, first compound 0.01 µM", "value": 79, "unit": "%"}, {"measurement": "viability, T/C", "setting": "second compound 0.0949 µM, first compound 0.0316 µM", "value": 91.8, "unit": "%"}, {"measurement": "viability, T/C", "setting": "second compound 0.0949 µM, first compound 0.1 µM", "value": 87.3, "unit": "%"}, {"measurement": "viability, T/C", "setting": "second compound 0.0949 µM, first compound 0.316 µM", "value": 60.6, "unit": "%"}, {"measurement": "viability, T/C", "setting": "second compound 0.0949 µM, first compound 1 µM", "value": 76.6, "unit": "%"}, {"measurement": "viability, T/C", "setting": "second compound 0.3 µM, first compound 0.00316 µM", "value": 87.8, "unit": "%"}, {"measurement": "viability, T/C", "setting": "second compound 0.3 µM, first compound 0.01 µM", "value": 83.2, "unit": "%"}, {"measurement": "viability, T/C", "setting": "second compound 0.3 µM, first compound 0.0316 µM", "value": 84.9, "unit": "%"}, {"measurement": "viability, T/C", "setting": "second compound 0.3 µM, first compound 0.1 µM", "value": 79, "unit": "%"}, {"measurement": "viability, T/C", "setting": "second compound 0.3 µM, first compound 0.316 µM", "value": 65.9, "unit": "%"}, {"measurement": "viability, T/C", "setting": "second compound 0.3 µM, first compound 1 µM", "value": 60.6, "unit": "%"}]}, {"molecule": "C=CC(=O)Nc1cc(Nc2nccc(-c3cn(C)c4ccccc34)n2)c(OC)cc1N(C)CCN(C)C", "note": "+ C=CC(=O)N1CCN(c2nc(OCC3CCCN3C)nc3c(F)c(-c4nc(N)cc(C)c4C(F)(F)F)c(Cl)cc23)C(C)C1", "values": [{"measurement": "IC50", "setting": "second compound 0.00316 µM", "value": 406, "unit": "nM"}, {"measurement": "IC50", "setting": "second compound 0.01 µM", "value": 500, "unit": "nM"}, {"measurement": "IC50", "setting": "second compound 0.0316 µM", "value": 403, "unit": "nM"}, {"measurement": "IC50", "setting": "second compound 0.1 µM", "value": 429, "unit": "nM"}, {"measurement": "IC50", "setting": "second compound 0.316 µM", "value": 457, "unit": "nM"}, {"measurement": "IC50", "setting": "second compound 1 µM", "value": 429, "unit": "nM"}, {"measurement": "viability, T/C", "setting": "second compound 0.00316 µM, first compound 0.00316 µM", "value": 96.5, "unit": "%"}, {"measurement": "viability, T/C", "setting": "second compound 0.00316 µM, first compound 0.01 µM", "value": 94.1, "unit": "%"}, {"measurement": "viability, T/C", "setting": "second compound 0.00316 µM, first compound 0.0316 µM", "value": 86.2, "unit": "%"}, {"measurement": "viability, T/C", "setting": "second compound 0.00316 µM, first compound 0.1 µM", "value": 76.5, "unit": "%"}, {"measurement": "viability, T/C", "setting": "second compound 0.00316 µM, first compound 0.316 µM", "value": 54.6, "unit": "%"}, {"measurement": "viability, T/C", "setting": "second compound 0.00316 µM, first compound 1 µM", "value": 31.4, "unit": "%"}, {"measurement": "viability, T/C", "setting": "second compound 0.01 µM, first compound 0.00316 µM", "value": 102, "unit": "%"}, {"measurement": "viability, T/C", "setting": "second compound 0.01 µM, first compound 0.01 µM", "value": 94.5, "unit": "%"}, {"measurement": "viability, T/C", "setting": "second compound 0.01 µM, first compound 0.0316 µM", "value": 83.7, "unit": "%"}, {"measurement": "viability, T/C", "setting": "second compound 0.01 µM, first compound 0.1 µM", "value": 72.2, "unit": "%"}, {"measurement": "viability, T/C", "setting": "second compound 0.01 µM, first compound 0.316 µM", "value": 57.5, "unit": "%"}, {"measurement": "viability, T/C", "setting": "second compound 0.01 µM, first compound 1 µM", "value": 39.2, "unit": "%"}, {"measurement": "viability, T/C", "setting": "second compound 0.0316 µM, first compound 0.00316 µM", "value": 112, "unit": "%"}, {"measurement": "viability, T/C", "setting": "second compound 0.0316 µM, first compound 0.01 µM", "value": 99.1, "unit": "%"}, {"measurement": "viability, T/C", "setting": "second compound 0.0316 µM, first compound 0.0316 µM", "value": 83.8, "unit": "%"}, {"measurement": "viability, T/C", "setting": "second compound 0.0316 µM, first compound 0.1 µM", "value": 71, "unit": "%"}, {"measurement": "viability, T/C", "setting": "second compound 0.0316 µM, first compound 0.316 µM", "value": 58.2, "unit": "%"}, {"measurement": "viability, T/C", "setting": "second compound 0.0316 µM, first compound 1 µM", "value": 32.7, "unit": "%"}, {"measurement": "viability, T/C", "setting": "second compound 0.1 µM, first compound 0.00316 µM", "value": 94.7, "unit": "%"}, {"measurement": "viability, T/C", "setting": "second compound 0.1 µM, first compound 0.01 µM", "value": 100, "unit": "%"}, {"measurement": "viability, T/C", "setting": "second compound 0.1 µM, first compound 0.0316 µM", "value": 88, "unit": "%"}, {"measurement": "viability, T/C", "setting": "second compound 0.1 µM, first compound 0.1 µM", "value": 76.4, "unit": "%"}, {"measurement": "viability, T/C", "setting": "second compound 0.1 µM, first compound 0.316 µM", "value": 56.7, "unit": "%"}, {"measurement": "viability, T/C", "setting": "second compound 0.1 µM, first compound 1 µM", "value": 33, "unit": "%"}, {"measurement": "viability, T/C", "setting": "second compound 0.316 µM, first compound 0.00316 µM", "value": 105, "unit": "%"}, {"measurement": "viability, T/C", "setting": "second compound 0.316 µM, first compound 0.01 µM", "value": 94.7, "unit": "%"}, {"measurement": "viability, T/C", "setting": "second compound 0.316 µM, first compound 0.0316 µM", "value": 84.6, "unit": "%"}, {"measurement": "viability, T/C", "setting": "second compound 0.316 µM, first compound 0.1 µM", "value": 80.3, "unit": "%"}, {"measurement": "viability, T/C", "setting": "second compound 0.316 µM, first compound 0.316 µM", "value": 60.1, "unit": "%"}, {"measurement": "viability, T/C", "setting": "second compound 0.316 µM, first compound 1 µM", "value": 30.2, "unit": "%"}, {"measurement": "viability, T/C", "setting": "second compound 1 µM, first compound 0.00316 µM", "value": 90.3, "unit": "%"}, {"measurement": "viability, T/C", "setting": "second compound 1 µM, first compound 0.01 µM", "value": 95.5, "unit": "%"}, {"measurement": "viability, T/C", "setting": "second compound 1 µM, first compound 0.0316 µM", "value": 88.5, "unit": "%"}, {"measurement": "viability, T/C", "setting": "second compound 1 µM, first compound 0.1 µM", "value": 80.7, "unit": "%"}, {"measurement": "viability, T/C", "setting": "second compound 1 µM, first compound 0.316 µM", "value": 58.1, "unit": "%"}, {"measurement": "viability, T/C", "setting": "second compound 1 µM, first compound 1 µM", "value": 27.6, "unit": "%"}]}]}
